We go through 1 compound from US5872124A, “Treatment of diseases of the central nervous system using uric acid as a scavenger of peroxynitrite” (Thomas Jefferson University, priority 1996, dated 1999).

Series [1] concerns experimental allergic encephalomyelitis (EAE), immunization-elicited. The experiment in a line: Clinical severity of immunization-elicited EAE in SJL mice. In kind it is in vivo. The text has this:
(§1) Induction of EAE in rats by adoptive transfer of MBP-specific T cells or in SJL or SWXJ-14 mice by immunization with MBP or PLP 139-151, a peptide derived from […] [8], results in variable disease. We have scored the clinical systems of EAE as tabulated below.
(§2) Severity scores and symptoms of Experimental Allergic
(§3) 1 piloerection, tail weakness
(§4) 3 hind limb weakness/paralysis
(§5) 4 hind and forelimb paralysis
(§6) SJL mice are immunized subcutaneously with pMBP in adjuvant to induce EAE, from which they often recover. Commencing ten days post-immunization, groups of mice (n=6) were treated once daily with 2 mg of either PTIO or carboxy-PTIO intraperitoneally and observed for clinical signs of EAE which were graded as detailed in Table 1. […] At 18 days […], NO determinations were performed in several mice from each group.

The subject of a further series is nitric oxide (NO). The experiment in a line: NO levels in spinal cord and brain of SJL mice with EAE. The format is in vivo. The method, then: as §6
In series [2] the test system is experimental allergic encephalomyelitis (EAE), PLP immunization. The experiment in a line: Clinical severity of PLP-induced EAE in SWXJ-14 mice. In kind it is in vivo. The settings on record: started 4-5 days after immunization with myelin antigens. The method, then:
FIG. 2. Effect of daily administration of c-PTIO (carboxy-PTIO) on EAE in SWXJ-14 mice. EAE was induced in SWJX-14 mice by two subcutaneous immunizations (d.0 and d.7) of […] PLP in CFA over two injection sites. Mice (N=3) were treated beginning on day 5 post-immunization with 2 mg/mouse c-PTIO […] i.p. and was continued until day 16 post-immunization (day 0 being the day of first immunization). Mean severity scores were graded as detailed in Table 1.
FIG. 4. Effect of D609 on the development of EAE in SWXJ-14 mice. SWXJ-mice were immunized with PLP as detailed for FIG. 2. Mice (n=2) were treated i.p. with 1 mg/mouse D609 from day 5 through day 14 post-immunization. Mean severity scores were graded as detailed in Table 1.
FIG. 12. Effect of the administration of various doses of uric acid on EAE in SWXJ-14 mice. EAE was induced in SWXJ-14 mice by two subcutaneous immunizations (d.0 and 7) of […] PLP in CFA over two injection sites. Mice (n=5) were treated once daily, beginning on day 5 post-immunization, with the indicated doses of uric acid. Mean severity scores were graded as detailed in Table 1.
as §1, §2, §3, §4, §5
In FIG. 1, EAE was elicited in 11 week old female Lewis rats by the adoptive transfer of 20×10^6 cells of the MBP-specific line 5HGBP.G5 activated by stimulation with MBP and syngeneic APC 48 hours previously and NO levels measured 5 days after transfer. In SWXJ-14 mice, EAE was triggered by two subcutaneous immunizations (d.0 and 7) with 100 μg PLP in CFA over two injection sites, and NO levels measured 18 days later. Results expressed represent the mean values obtained from a minimum of 4 animals. Peak severity of the symptoms of EAE ranged from 2-3 for the rats and 4-5 for the mice. NO was semi-quantitated using spin trapping with DETC and EPR-spectroscopy as described previously.
Clinical symptoms manifest as an ascending paralysis approximately 13 days after immunization and the disease rapidly progresses to its fatal endpoint by day 16-20. […] NO levels in the brains and spinal cords of animals treated with a single daily dose of PTIO were semi-quantitated by spin trapping and EPR spectroscopy on day 17 after immunization, one day after treatment was terminated. […] We expect that the removal of NO by PTIO should not necessarily interfere with the induction of the response responsible for NO production and that as the supplied PTIO is used up NO levels should rapidly return to control values.
In contrast to SJL mice, SWX mice immunized with PLP undergo a progressive,often fatal form of EAE. Clinical symptoms manifest as an ascending paralysis approximately 13 days after immunization and the disease rapidly progresses to its fatal endpoint by days 16-20. […] We conclude that the amount of carboxy-PTIO we administered, especially considering the short in vivo half life of the compound, was only sufficient to delay the onset of the EAE in the SWXJ-14 mouse.
NO is not universally considered to be a molecule with significant in vivo toxicity and peroxynitrite is thought to be the more toxic molecule produced by activated inflammatory cells resulting from the interaction of NO and superoxide. We would henceforth expect that removal of NO would reduce peroxynitrite formation. To determine whether NO or peroxynitrite is more likely to be ultimately responsible for clinical disease in EAE we have performed a series of experiments using uric acid, a known scavenger of peroxynitrite, to treat EAE induced in SWXJ-14 mice by immunization with PLP.

The next series is described as follows: Water solubility. The format is physicochemical.
The nature of series [3]: Side-effects of PTIO in EAE. In kind it is in vivo. The method, then:
The biological half-life of carboxy-PTIO are estimated to be less than five minutes in the blood when injected i.v. or i.p. into either rats or mice. Approximately 75% of the PTIO administered to mice can be accounted for in excretions within 4 hours. Nevertheless, the clinical symptoms of animals subjected to the stimuli that induce EAE and treated with PTIO are clearly alleviated for at least 24 hours between doses. […] It is possible that the removal of a significant quantity of NO may reduce the amount of tissue damage to a level that the animal can cope with. However, we believe that it is possible that the transient reduction of NO accumulation in an inflammatory response may have more wide ranging effects for instance through the disturbance of regulatory circuits effecting the production of NO or one of the other related substances involved in immunopathology. […] Through its effects on the circulation, NO may play a role in facilitating access of MBP specific T cells to the brain which could be inhibited by PTIO. It is also conceivable that a PTIO derivative formed by its interaction with NO also has some protective effect. […]

For series [4] the following is noted: mice, within 4 hours [17]; cited from earlier work.

In the case of `CC1(C)N([O])C(c2ccccc2)=[N+]([O-])C1(C)C` [PTIO, 2-phenyl-4,4,5,5-tetramethylimidazoline-1-oxyl-3-oxide], in series [1] (2 mg once daily i.p. from day 10 post-immunization, n=6), the “Onset and severity of EAE (FIG. 7)” value is “delayed onset of disease and somewhat lessened severity by comparison with untreated animals”. In addition, the “Clinical symptoms of EAE” value in series [1] (SJL mice, i.p. administration) is on record as “forestall the appearance of clinical symptoms of EAE”. Also, the Clinical severity in series [1] (SJL mouse - immunization EAE, severity score 1-5, Table 2) amounted to 0.8. Besides, in the series with nitric oxide (NO) (2 mg once daily i.p., day 18), the “NO levels in spinal cord (FIG. 8)” value is “lower in the spinal cords”. Moreover, the “Levels of NO in spinal cord” value with nitric oxide (NO) (SJL mice, i.p. administration) is “reduce levels of NO detected in spinal cord”. Further, the NO-spinal cord in the series with nitric oxide (NO) (SJL mouse - immunization EAE, Table 2) came to 1.6 mM. The “Effectiveness when treatment is started after immunization” value in series [2] is on record as “effective when started 4-5 days after immunization with myelin antigens”. For the same compound, the Water solubility entry in “Water solubility” is given as “not water soluble”. Also, the Side-effects entry in series [3] is listed as “without notable side-effects”. Also, the “Amount accounted for in excretions” value in series [4] is reported as “Approximately 75%”.
